Patent US9403874B2, “Peptides and use thereof” (IL YANG PHARM. CO.,LTD., priority 2012, dated 2016)

Experiments:
IL-6 = assay: Reduction of IL-6 secretion in activated B cells (ELISA); format: cell-based; details: 100 ng/me of peptide; EBV-infected B cells stimulated with anti-CD150; ELISA of culture supernatant
Procedure: (§1) In order to determine the activity of the novel peptides synthesized in Example 1 for reducing the secretion of inflammatory cytokines, the activated pathogenic B cells were treated with each of the 18 types of synthesized novel peptides and the reduction in secretion of inflammatory cytokines from the B cells was monitored.
(§2) Specifically, in order to determine whether the novel peptides could weaken the pathogenic B cells which are involved in the development of disease symptoms, the in vitro B cells model which is similar to the joint infiltrative B cells of rheumatoid arthritis was used. The activated pathogenic B cell was generated by stimulating Ebstein Barr virus (EBV)-infected B cells with anti-CD150 antibodies, and the cells were treated with […] of each of the 18 types of novel peptide.
(§3) In order to confirm the effect of 18 types of novel peptides in reducing inflammatory cytokines, the secretion amount of various cytokines (IL-1A, IL-1B, IL-2, IL-4, IL-5, IL-6, IL-8, IL-10, IL-12A, IL-13, IL-17A, GM-CSF, IL-34) secreted from the activated B cells was measured. The supernatants of B cell culture were analyzed enzyme-linked immunosorbent assay (ELISA), and the difference in absorbance (450 nm-570 nm) of the color developing reagent was measured as test results. Based on the measured difference in absorbance (450 nm-570 nm) of the color developing reagent, the absorbance of cytokines secreted when treated with the 18 types of novel […] was calculated in percentage, while setting the absorbance corresponding to the cytokines secreted from the activated B cells stimulated by anti-CD150 as 100%.

GM-CSF = assay: Reduction of GM-CSF secretion in activated B cells (ELISA); format: cell-based; details: 100 ng/me of peptide; EBV-infected B cells stimulated with anti-CD150; ELISA of culture supernatant
Procedure: as §1, §2, §3

IL-10 = assay: Reduction of IL-10 secretion in activated B cells (ELISA); format: cell-based; details: 100 ng/me of peptide; EBV-infected B cells stimulated with anti-CD150; ELISA of culture supernatant
Procedure: as §1, §2, §3

IL-34 = assay: Reduction of IL-34 secretion in activated B cells (ELISA); format: cell-based; details: 100 ng/me of peptide; EBV-infected B cells stimulated with anti-CD150; ELISA of culture supernatant
Procedure: as §1, §2, §3

[1] = tested on: antibodies specific to bovine type II collagen; assay: Serological analysis in collagen-induced arthritis mice (ELISA); format: in vivo, mouse; details: serum of CIA mice
Procedure: In order to determine the therapeutic effect of the novel peptide SIS-1 for arthritis, enzyme-linked immunosorbent assay (ELISA) was performed to measure the antibodies specific to bovine type II collagen with the serological test. As mentioned in the literature, IgG antibody, known as the rheumatoid factor (RF), or subtype of IgG (IgG1 and IgG2a) and IgM autoantibody are known to form immune complexes, cause inflammation, and develop the lesions of rheumatoid arthritis (Journal of Ethnopharmacology 112 (2007) 408).
After diluting the serum of each test group in a ratio of 1:25000 (IgG) or 1:10000 (IgG1, IgG2a, IgM), the titer of serum autoantibody specific to type II collagen was measured.

[2] = tested on: TPA-induced ear edema mouse model; assay: TPA-induced ear edema mouse model; format: in vivo; details: 6 hours after TPA application, intraperitoneal, twice
Excerpt: The present inventors confirmed that the peptides of the present invention are effective in alleviating inflammation invivo, along with reduction of the secretion of inflammatory cytokines as confirmed in Example 2. To be specific, in order to identify the anti-inflammatory effect of the peptide SIS-1, which is a representative peptide of 18 types of novel peptides prepared in Example 1, the present inventors used the method for evaluating the mouse ear edema wherein 12-O-tetradecanoylphorbol-13-acetate (TPA) induces acute inflammation as described in the literature (Eur J Pharmacol. 2011: 15; 672(1-3):175-179).
The TPA-induced ear edema mouse model is an animal model where erythema and edema caused by acute inflammation can be observed and it was prepared by the following method. The 24 mice of 5-week-old ICR mouse ([…], mal, central laboratory animals, Korea) were divided into 6 mice per group, and their hairs of both ears were removed before applying the sample. […]
The anti-inflammatory effect of the peptide SIS-1 was determined by observing the degree of edema inhibition as compared to the control group injected with vehicle. After 6 hours of TPA application, pictures of both ears were taken to determine the degree of ear edema, and the degree of inflammation alleviated was determined by measuring the thickness and weight per certain area of ear.

IL-1A = assay: Reduction of IL-1A secretion in activated B cells (ELISA); format: cell-based; details: 100 ng/me of peptide; EBV-infected B cells stimulated with anti-CD150; ELISA of culture supernatant
Procedure: as §1, §2, §3

IL-12A = assay: Reduction of IL-12A secretion in activated B cells (ELISA); format: cell-based; details: 100 ng/me of peptide; EBV-infected B cells stimulated with anti-CD150; ELISA of culture supernatant
Procedure: as §1, §2, §3

IL-17A = assay: Reduction of IL-17A secretion in activated B cells (ELISA); format: cell-based; details: 100 ng/me of peptide; EBV-infected B cells stimulated with anti-CD150; ELISA of culture supernatant
Procedure: as §1, §2, §3

IL-13 = assay: Reduction of IL-13 secretion in activated B cells (ELISA); format: cell-based; details: 100 ng/me of peptide; EBV-infected B cells stimulated with anti-CD150; ELISA of culture supernatant
Procedure: as §1, §2, §3

[3] = tested on: collagen-induced arthritis mouse model; assay: Collagen-induced arthritis mouse model; format: in vivo
Procedure: In order to investigate the therapeutic effect of the peptide SIS-1, which is a representative peptide of the 18 types of novel peptides prepared in Example 1 against a representative autoimmune disease, arthritis, the experiment was performed using the collagen-induced arthritis mouse model of the literature (Nature, 283, pp 666-668, 1980; Arthritis Rheum, 46, pp 793-801, 2002).
The collagen-induced arthritis (CIA) is the model with arthritis of autoimmune disease type having similar characteristics as human rheumatoid arthritis and it was prepared by the following method.
The 100 μg of bovine type II collagen (Chondrex four, United States) was emulsified by mixing it with Freund's complete adjuvant (Chondrex, USA), and 7-week-old DBA/1 mouse ([…], male, central laboratory animals, Korea) was immunized by injecting the emulsified collagen solution intradermally at the tail region. On the 14th day of the first immunization, 50 μg of bovine type II collagen (Chondrex four, United States) was emulsified by mixing it with Freund's complete adjuvant (Chondrex, USA), and the second immune (boosting) response was induced by injecting the same intradermally at the tail region.
The novel peptide SIS-1 and a control drug, dexamethasone (DEX), were intraperitoneally administered three times a week from the next day of inducing the second immune response, and the control group (CIA) was treated with PBS.
In order to monitor the development of arthritis, the thickness of foot was measured using loop handle thickness gauge (Mitutoyo) while observing the weight change and the level of pathogenesis. In addition, the severity of the joint inflammation was assessed three times a week by two observers without knowing the contents of the experiment. Assessment of arthritis was performed by adding the scores for four legs per one mouse according to the following criteria, based on the arthritis progression index by Rossoliniec, et al. and then by taking the average of the values measured by two observers. The score and criteria for assessing arthritis are as follows:
0 point: no edema or swelling
1 point: mild edema and redness confined to foot or ankle joint
2 points: mild edema and redness in ankle joint through metatarsal
3 points: moderate edema and redness in ankle joint through metatarsal
4 points: edema and redness through the whole leg, and appearance of acampsia
The maximum arthritis index is 4 points per leg, and the maximum disease index per mouse is 16.
In order to determine the damage in the cartilage of joints, the histological examination was performed after completion of the test. On the 9th week of the animal model test, after the test animal was killed, the hind leg of the mouse hind was fixed with 10% formalin and coated with paraffin after removing compounds of calcium from the bones. Joint section was prepared and stained with hematoxylin and eosin.

IL-2 = assay: Reduction of IL-2 secretion in activated B cells (ELISA); format: cell-based; details: 100 ng/me of peptide; EBV-infected B cells stimulated with anti-CD150; ELISA of culture supernatant
Procedure: as §1, §2, §3

IL-8 = assay: Reduction of IL-8 secretion in activated B cells (ELISA); format: cell-based; details: 100 ng/me of peptide; EBV-infected B cells stimulated with anti-CD150; ELISA of culture supernatant
Procedure: as §1, §2, §3

IL-4 = assay: Reduction of IL-4 secretion in activated B cells (ELISA); format: cell-based; details: 100 ng/me of peptide; EBV-infected B cells stimulated with anti-CD150; ELISA of culture supernatant
Procedure: as §1, §2, §3

IL-1B = assay: Reduction of IL-1B secretion in activated B cells (ELISA); format: cell-based; details: 100 ng/me of peptide; EBV-infected B cells stimulated with anti-CD150; ELISA of culture supernatant
Procedure: as §1, §2, §3

IL-5 = assay: Reduction of IL-5 secretion in activated B cells (ELISA); format: cell-based; details: 100 ng/me of peptide; EBV-infected B cells stimulated with anti-CD150; ELISA of culture supernatant
Procedure: as §1, §2, §3

| Substance | Inhibition rate of each cytokine compared to CD150-stimulated EBV-t B cells (%) IL-6 (IL-6) [%] | Inhibition rate of each cytokine compared to CD150-stimulated EBV-t B cells (%) GM-CSF (GM-CSF) [%] | Inhibition rate of each cytokine compared to CD150-stimulated EBV-t B cells (%) IL-10 (IL-10) [%] | Inhibition rate of each cytokine compared to CD150-stimulated EBV-t B cells (%) IL-34 (IL-34) [%] | Inhibition rate of each cytokine compared to CD150-stimulated EBV-t B cells (%) IL-1A (IL-1A) [%] | Inhibition rate of each cytokine compared to CD150-stimulated EBV-t B cells (%) IL-12A (IL-12A) [%] | Inhibition rate of each cytokine compared to CD150-stimulated EBV-t B cells (%) IL-17A (IL-17A) [%] | Inhibition rate of each cytokine compared to CD150-stimulated EBV-t B cells (%) IL-13 (IL-13) [%] | Inhibition rate of each cytokine compared to CD150-stimulated EBV-t B cells (%) IL-2 (IL-2) [%] | Inhibition rate of each cytokine compared to CD150-stimulated EBV-t B cells (%) IL-8 (IL-8) [%] | Inhibition rate of each cytokine compared to CD150-stimulated EBV-t B cells (%) IL-4 (IL-4) [%] | Inhibition rate of each cytokine compared to CD150-stimulated EBV-t B cells (%) IL-1B (IL-1B) [%] | Inhibition rate of each cytokine compared to CD150-stimulated EBV-t B cells (%) IL-5 (IL-5) [%] | also measured |
| --- | --- | --- | --- | --- | --- | --- | --- | --- | --- | --- | --- | --- | --- | --- |
| MSLPSPRDGRTDGRTDCTR (SIS-1 peptide) | 42.9 | 60.5 | 47.6 | 43.4 | 22.7 | 43.5 | 63.6 | 37.6 | 19.7 | 53.8 | 59.9 | 25.4 | 30.3 | reduction of autoantibodies compared with control drug DEX [1]: as effective as or superior than; erythema increased by TPA application [2]: reduced; inflammatory response (thickness and weight of ear increased by TPA edema) [2]: inhibited significantly; onset of disease symptom ([3]; after second immunization, versus CIA group): delayed; mouse weight ([3]; after second immunization, intraperitoneal three times a week): maintained similar to that of Normal group; incidence of arthritis ([3]; by the end of the test, intraperitoneal three times a week): 87.5%; arthritis progression index ([3]; compared to the CIA group): reduced; swelling of ankle joints ([3]; compared to the CIA group): reduced; destruction of joints and cartilage (histology, hematoxylin and eosin) ([3]; hind leg joint sections, 9th week): maintained at similar level as the normal mice |
| MSLPSP (SIS-1#1 peptide) | 19.2 | 18.0 | 7.2 | 18.8 | 7.8 | 19.8 | 24.8 | 15.0 | 13.5 | 17.5 | 19.8 | 9.3 | 18.5 | – |
